In general, solubility refers to the concentration that dissolves in the medium under given conditions. Read a high solubility as much dissolved substance.

Assay type in all cases: physicochemical
Data set [1] in a line: Solubility C of the compound in n-decane at 5° C. (saturated solution, absorbance) and product εC. Particulars: for Solubility C: in n-decane at 5° C., 24 hours, 0.1-μm filter; for εC: product of ε and saturation concentration C in n-decane at 5° C. The protocol: The solubility C of each compound in n-decane was determined in the following manner. Each of compounds 1 to 11 and comparative compound 1 was added to n-decane until some of the compound came to remain undissolved, and the mixture was subjected to an ultrasonic treatment at 30° C. for 30 minutes.
After the addition, each mixture was subjected to a 30-minute ultrasonic treatment at 30° C. This mixture was allowed to stand at 5° C. for 24 hours and then subjected to centrifugal filtration with a 0.1-μm filter using a miniature centrifugal machine (centrifugal force, 5,200×g). The saturated solution obtained was diluted to an adequate concentration and examined for absorption spectrum with Hitachi Spectrophotometer U-4100 using a quartz cell having a measuring optical-path length of 10 mm. The concentration of each compound was determined from a relationship between the absorbance at the absorption maximum wavelength λmax (nm) and the molar extinction coefficient ε (L·mol^−1·cm^−1) determined beforehand, and the solubility C (mol·L^−1) thereof was calculated. Furthermore, the product εC of the molar extinction coefficient ε (L·mol^−1·cm^−1) and the solubility C (mol·L^−1) was determined.

A short description of data set [2]: Absorption spectrum of n-decane solution: solution color, absorption maximum wavelength λmax, molar extinction coefficient ε. Particulars: for Absorption maximum wavelength λmax: 10 mm quartz cell; for ε (molar extinction coefficient): at λmax. How it is done:
The solution color, absorption maximum wavelength (λmax), solubility C in 5° C. n-decane, molar extinction coefficient ε, and εC of each ink are summarized in Table 4.
One milligram of each of compound 1 and comparative compounds 1 and 2 was dissolved in 100 mL of the solvent, and the solution was examined for absorption spectrum with Hitachi Spectrophotometer U-4100 using a quartz cell having a measuring optical-path length of 10 mm. From the spectrum obtained, the absorption maximum wavelength λmax (nm) and the molar extinction coefficient E (L·mol^−1·cm^−1) were determined.

Data set [3] in a line: Light fastness test (xenon light weatherometer, retention of absorbance). Particulars: retention of absorbance at λmax; n-decane solution, xenon light 340 nm, 0.55 W/m^2, 40 hours, 33° C. How it is done: The light fastness of compounds 1 to 3, 5, and 7 to 11 and comparative compound 1 was determined in the following manner. In 0.99 g of n-decane was dissolved 0.01 of each compound. This solution was introduced into a cell having an optical-path length of 0.004 mm, and this cell was sealed with an epoxy resin. Using a weatherometer (Atlas Ci4000), the cell was irradiated with xenon light (340 nm; irradiance, 0.55 W/m^2) for 40 hours. During the irradiation, the internal temperature of the test chamber was kept at 33° C.
The retention of each compound was calculated using the following equation.

A short description of data set [4]: Relative permittivity of solvent (impedance meter method). The settings on record: 1 kHz, 22° C. The text has this:
Precision LCR Meter 4284A, manufactured by Agilent Technologies, Inc., was used to make a measurement by the impedance meter method. […] Relative permittivity=(equivalent parallel capacitance)×(electrode spacing)/(electrode area)/(permittivity of vacuum (ε0))

Data set [5] in a line: Solubility of solvent in water (gas chromatography). Particulars: pure water, 25° C. How it is done:
Into a 110-mL vial were introduced 30 g of pure water and 8 g of the solvent. This vial was shaken for 4 hours at a frequency of 200 times per minute in a 25° C. thermostatic chamber. The liquid which had undergone the shaking was centrifuged (6,000×g; for 5 minutes), and the aqueous layer was sampled. The concentration of the solvent dissolved therein was determined by gas chromatography.

For the molecule `CCCCc1ccc(N=Nc2cc(C#N)c(N=Nc3sc(N(CC(CC)CCCC)CC(CC)CCCC)nc3C(C)(C)C)s2)cc1` (stereo not drawn) [Compound 10], in data set [1], the “Solubility C” value is reported as “≧15 mass %” and the εC entry is reported as “≧9000 cm^−1”. Moreover, in data set [2], the “Absorption maximum wavelength λmax” value was found to be 595 nm and the “ε (molar extinction coefficient)” value stood at 57000 L/mol/cm. Also, in data set [3], the Light fastness entry is “A (retention of 100-90%)”.
The like results for `CCCCC(CC)CN(CC(CC)CCCC)c1ccc(N=Nc2sc(N=Nc3ccc(CCC)cc3)c(C)c2C#N)c(NC(C)=O)c1` (stereo not drawn) [Compound 3] were, in that order, “≧34.3 mass %”, “≧20000 cm^−1”, 617 nm, 70000 L/mol/cm and “A (retention of 100-90%)”.
Regarding `CCCCc1ccc(N=Nc2sc(N=Nc3cc(OCC)c(N(CC(CC)CCCC)CC(CC)CCCC)cc3OCC)c(C#N)c2C)cc1` (stereo not drawn) [Compound 4], in data set [1], the “Solubility C” value is “≧10.5 mass %” and the εC entry is “≧6000 cm^−1”. Moreover, in data set [2], the “Absorption maximum wavelength λmax” value came to 638 nm and the “ε (molar extinction coefficient)” value worked out at 54000 L/mol/cm. Further, the Light fastness entry in data set [3] was “A (retention of 100-90%)”.
The corresponding values for `CCCCc1ccc(N=Nc2cc(C(=O)OCCC)c(N=Nc3ccc(N(CC(CC)CCCC)CC(CC)CCCC)cc3C)s2)cc1` (stereo not drawn) [Compound 7] are 17.4 mass %, 9500 cm⁻¹, 590 nm, 51000 L/mol/cm and “A (retention of 100-90%)”.
Consider `CCCCc1ccc(N=Nc2cc(C#N)c(N=Nc3sc(N(CC(CC)CCCC)CC(CC)CCCC)nc3C(C)(C)C)s2)c(C)c1` (stereo not drawn) [Compound 11], for which, in data set [1], the “Solubility C” value is “≧19.7 mass %” and the εC result is “≧12000 cm^−1”. Moreover, in data set [2], the “Absorption maximum wavelength λmax” value is listed as 595 nm and the “ε (molar extinction coefficient)” value was 59000 L/mol/cm. Besides, the Light fastness result in data set [3] was “A (retention of 100-90%)”.
For `CCCCCCSc1nnc(N=Nc2cc(OC)c(N(Cc3ccc(C(C)(C)C)cc3)Cc3ccc(C(C)(C)C)cc3)cc2NC(C)=O)s1` [compound 1, reference compound], in data set [1], the “Solubility C” value is 9.1 mass % and the εC turned out to be 4700 cm⁻¹. Besides, in data set [2], the “Absorption maximum wavelength λmax” value came out at 526 nm and the “ε (molar extinction coefficient)” value worked out at 50000 L/mol/cm. In data set [3], the Light fastness result is “D (retention of 49% or less)”.
With `CCCCCc1ccc(N=Nc2cc(C(=O)OCCC)c(N=Nc3ccc(N(CC(CC)CCCC)CC(CC)CCCC)cc3CC)s2)cc1` (stereo not drawn) [Compound 5], in data set [1], the “Solubility C” value was “≧20.1 mass %” and the εC result is recorded as “≧10000 cm^−1”. Further, in data set [2], the “Absorption maximum wavelength λmax” value was determined as 591 nm and the “ε (molar extinction coefficient)” value is 50000 L/mol/cm. Besides, the Light fastness entry in data set [3] is recorded as “A (retention of 100-90%)”.
For the molecule `CCCCCCCCCC` [n-decane], in data set [4], the relative permittivity came to 2.0. In data set [5], the solubility at 4 h is not above 1 µg/mL.
`CCCCc1ccc(N=Nc2sc(N=Nc3ccc(N(CC(CC)CCCC)CC(CC)CCCC)cc3C)c(C#N)c2C)cc1` (stereo not drawn) [Compound 2]: in data set [1], the “Solubility C” value is 1.7 mass % and the εC was 1220 cm⁻¹. In data set [2], the “Absorption maximum wavelength λmax” value was 608 nm and the “ε (molar extinction coefficient)” value was 62000 L/mol/cm. Further, the Light fastness entry in data set [3] is on record as “A (retention of 100-90%)”.

Values taken from patent publication US9708498B2, “Azo compound, ink containing azo compound, display including said ink and electronic paper” (MITSUBISHI CHEMICAL CORPORATION, priority 2012, dated 2017).
